The text below walks through data of BindingDB's records for PubMed 9023294 (Sanofi Recherche, 1997).

SMILES strings stand for the structures.

In test [1] the target is Neurotensin (Cavia porcellus, UniProt P32560).
Test [2] addresses T1, Neurotensin/neuromedin N (Human, UniProt P30990).
T1 sequence (P30990 whole entry): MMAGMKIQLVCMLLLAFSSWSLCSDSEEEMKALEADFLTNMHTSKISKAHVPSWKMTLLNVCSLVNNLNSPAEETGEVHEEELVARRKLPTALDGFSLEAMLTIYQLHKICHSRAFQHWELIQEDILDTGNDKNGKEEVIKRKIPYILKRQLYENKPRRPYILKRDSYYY

In general, Ki refers to a dissociation constant, usually derived from enzyme kinetics or from competition with a known ligand. Read a low Ki as higher affinity.

For the compound `COc1cccc(OC)c1-c1cc(C(=O)NC2(C(=O)O)C3CC4CC(C3)CC2C4)nn1-c1ccnc2cc(Cl)ccc12` (stereo not drawn), in test [1], the Ki is 3.9 nM.
For `COc1cccc(OC)c1-c1cc(C(=O)NC2(C(=O)O)C3CC4CC(C3)CC2C4)nn1-c1ccc(C(=O)N(C)CCCN(C)C)cc1C(C)C` (stereo not drawn) [SR142948A], the inhibition constant Ki in test [1] was 0.17 nM; in test [2] it was 0.28 nM.
